Measured values: US11739098B2 (BRISTOL-MYERS SQUIBB COMPANY, priority 2017, dated 2023)

Experiments:
Assay type in all cases: cell-based
human TLR7 = target: T1, human TLR7 (Homo sapiens, UniProt Q9NYK1); assay: TLR7 inhibition reporter assay (HEK-Blue cells, SEAP reporter, gardiquimod stimulation); conditions: HEK-Blue cells overexpressing human TLR7, SEAP reporter, gardiquimod 7.5 μM
T1 construct: host or cells: HEK-Blue cells (HEK293-derived reporter line)
T1 sequence (Q9NYK1 27-1049): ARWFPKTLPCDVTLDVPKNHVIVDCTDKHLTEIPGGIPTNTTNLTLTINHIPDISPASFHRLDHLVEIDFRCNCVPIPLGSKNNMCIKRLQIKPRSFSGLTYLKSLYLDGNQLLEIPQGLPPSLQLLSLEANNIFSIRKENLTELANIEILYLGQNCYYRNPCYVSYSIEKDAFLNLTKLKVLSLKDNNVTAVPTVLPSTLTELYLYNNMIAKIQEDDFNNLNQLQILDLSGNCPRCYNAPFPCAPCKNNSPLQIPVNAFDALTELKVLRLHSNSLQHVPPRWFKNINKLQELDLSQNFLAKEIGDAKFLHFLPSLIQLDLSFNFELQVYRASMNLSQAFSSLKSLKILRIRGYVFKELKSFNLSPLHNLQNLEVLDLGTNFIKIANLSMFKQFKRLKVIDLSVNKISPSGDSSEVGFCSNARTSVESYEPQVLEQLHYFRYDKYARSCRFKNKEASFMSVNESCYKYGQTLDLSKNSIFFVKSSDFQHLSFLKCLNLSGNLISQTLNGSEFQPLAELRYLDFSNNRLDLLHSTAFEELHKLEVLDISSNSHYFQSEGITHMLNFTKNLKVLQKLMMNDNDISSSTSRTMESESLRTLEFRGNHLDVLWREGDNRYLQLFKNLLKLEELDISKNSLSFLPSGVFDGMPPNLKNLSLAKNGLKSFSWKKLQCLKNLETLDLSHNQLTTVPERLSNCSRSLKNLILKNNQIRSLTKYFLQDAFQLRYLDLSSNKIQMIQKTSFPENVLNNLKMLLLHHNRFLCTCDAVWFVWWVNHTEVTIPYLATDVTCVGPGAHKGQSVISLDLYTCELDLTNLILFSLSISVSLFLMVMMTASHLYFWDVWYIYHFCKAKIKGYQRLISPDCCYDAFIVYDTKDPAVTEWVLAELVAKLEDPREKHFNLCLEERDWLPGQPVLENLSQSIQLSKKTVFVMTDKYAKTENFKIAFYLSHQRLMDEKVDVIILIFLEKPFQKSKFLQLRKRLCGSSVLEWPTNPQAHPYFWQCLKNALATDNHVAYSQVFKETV
How it was run: (§1)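 Read-out is SEAP activity in HEK-Blue detection medium after 22 h at 37 °C, converted to percent inhibition against agonist-plus-DMSO and reference-inhibitor controls. Cells saw compound (0.05 nM–50 μM, 30 min, room temperature) before gardiquimod 7.5 μM, R848 15.9 μM or ODN2006 5 nM for TLR7, TLR8 and TLR9, respectively.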

human TLR9 = target: T2, human TLR9 (Homo sapiens, UniProt Q9NR96); assay: TLR9 inhibition reporter assay (HEK-Blue cells, SEAP reporter, ODN2006 stimulation); conditions: HEK-Blue cells overexpressing human TLR9, SEAP reporter, ODN2006 5 nM
T2 construct: host or cells: HEK-Blue cells (HEK293-derived reporter line)
T2 sequence (Q9NR96 26-1032): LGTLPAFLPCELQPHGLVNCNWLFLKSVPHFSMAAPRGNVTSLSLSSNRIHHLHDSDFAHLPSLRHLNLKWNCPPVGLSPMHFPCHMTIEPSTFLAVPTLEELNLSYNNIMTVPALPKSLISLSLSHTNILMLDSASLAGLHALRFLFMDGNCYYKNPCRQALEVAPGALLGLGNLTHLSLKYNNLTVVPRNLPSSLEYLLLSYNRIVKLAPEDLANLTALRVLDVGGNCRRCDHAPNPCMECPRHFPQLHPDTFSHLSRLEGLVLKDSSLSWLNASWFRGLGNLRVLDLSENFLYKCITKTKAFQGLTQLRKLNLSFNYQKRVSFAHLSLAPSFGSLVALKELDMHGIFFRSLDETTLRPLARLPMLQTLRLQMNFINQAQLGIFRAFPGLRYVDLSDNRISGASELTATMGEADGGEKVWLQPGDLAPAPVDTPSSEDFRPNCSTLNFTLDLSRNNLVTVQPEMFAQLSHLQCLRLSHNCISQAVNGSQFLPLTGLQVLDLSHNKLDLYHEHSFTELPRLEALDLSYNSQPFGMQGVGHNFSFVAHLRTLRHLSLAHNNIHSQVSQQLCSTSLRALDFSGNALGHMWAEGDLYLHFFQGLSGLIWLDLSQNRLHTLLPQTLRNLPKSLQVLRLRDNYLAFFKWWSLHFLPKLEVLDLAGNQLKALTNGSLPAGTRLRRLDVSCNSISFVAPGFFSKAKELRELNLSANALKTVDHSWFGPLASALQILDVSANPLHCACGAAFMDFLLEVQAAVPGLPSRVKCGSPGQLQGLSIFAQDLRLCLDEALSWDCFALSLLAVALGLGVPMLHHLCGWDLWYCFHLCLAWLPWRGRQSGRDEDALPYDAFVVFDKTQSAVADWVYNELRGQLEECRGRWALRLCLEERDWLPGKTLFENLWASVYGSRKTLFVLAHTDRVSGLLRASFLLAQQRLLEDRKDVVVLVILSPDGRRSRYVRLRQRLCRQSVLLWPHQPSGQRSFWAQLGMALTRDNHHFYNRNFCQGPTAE
How it was run: as §1

human TLR8 = target: T3, human TLR8 (Homo sapiens, UniProt Q9NR97); assay: TLR8 inhibition reporter assay (HEK-Blue cells, SEAP reporter, R848 stimulation); conditions: HEK-Blue cells overexpressing human TLR8, SEAP reporter, R848 15.9 μM
T3 construct: host or cells: HEK-Blue cells (HEK293-derived reporter line)
T3 sequence (Q9NR97 27-1041): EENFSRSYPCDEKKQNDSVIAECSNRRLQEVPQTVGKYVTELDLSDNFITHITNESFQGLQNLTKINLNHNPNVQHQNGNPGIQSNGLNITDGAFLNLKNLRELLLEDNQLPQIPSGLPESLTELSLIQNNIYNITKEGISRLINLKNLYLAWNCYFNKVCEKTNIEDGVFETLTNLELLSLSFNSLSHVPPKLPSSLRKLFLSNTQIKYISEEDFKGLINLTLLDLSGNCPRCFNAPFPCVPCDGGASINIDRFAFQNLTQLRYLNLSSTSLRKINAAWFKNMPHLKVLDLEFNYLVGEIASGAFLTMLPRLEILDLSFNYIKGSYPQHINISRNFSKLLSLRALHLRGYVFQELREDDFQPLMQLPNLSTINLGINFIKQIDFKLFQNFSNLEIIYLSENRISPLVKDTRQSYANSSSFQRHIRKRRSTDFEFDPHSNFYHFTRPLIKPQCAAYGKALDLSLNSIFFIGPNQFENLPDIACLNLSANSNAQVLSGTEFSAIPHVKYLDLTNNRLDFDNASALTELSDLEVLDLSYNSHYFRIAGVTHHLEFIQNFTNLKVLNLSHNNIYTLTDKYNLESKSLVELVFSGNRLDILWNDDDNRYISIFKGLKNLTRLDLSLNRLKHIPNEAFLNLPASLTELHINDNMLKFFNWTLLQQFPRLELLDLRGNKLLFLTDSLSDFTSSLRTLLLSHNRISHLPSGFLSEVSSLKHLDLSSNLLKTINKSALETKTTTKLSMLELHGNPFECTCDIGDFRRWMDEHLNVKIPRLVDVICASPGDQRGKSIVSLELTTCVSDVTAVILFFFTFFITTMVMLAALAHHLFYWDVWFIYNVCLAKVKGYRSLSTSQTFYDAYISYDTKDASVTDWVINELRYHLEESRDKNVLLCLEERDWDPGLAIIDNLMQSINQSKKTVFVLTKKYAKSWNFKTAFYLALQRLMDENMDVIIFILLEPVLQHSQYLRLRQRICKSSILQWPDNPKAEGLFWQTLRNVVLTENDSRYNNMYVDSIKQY
How it was run: as §1

| IC50 (human TLR7) [nM] | IC50 (human TLR9) [nM] | IC50 (human TLR8) [nM] | Compound |
| --- | --- | --- | --- |
| < 100 | 1000 to 50000 | < 100 | CC(C)c1c(-c2cn3ccnc3cc2Cl)[nH]c2ccc(C3CCN(CC(=O)N(C)C)CC3)cc12 [Example 428, 2-(4-(2-(7-chloroimidazo[1,2-a]pyridin-6-yl)-3-isopropyl-1H-indol-5-yl)piperidin-1-yl)-N,N-dimethylacetamide] |
| < 100 | 1000 to 50000 | < 100 | COc1cc(-c2[nH]c3ccc(C4CCN(CC(C)(C)O)CC4)cc3c2C(C)C)nn2ncnc12 [Example 749, 1-(4-(3-isopropyl-2-(8-methoxy-[1,2,4]triazolo[1,5-b]pyridazin-6-yl)-1H-indol-5-yl)piperidin-1-yl)-2-methylpropan-2-ol] |
| < 100 | 100 to 1000 | < 100 | Cc1cc(-c2[nH]c3ccc(C4CCN(C(=O)CCN5CC6(COC6)C5)CC4)cc3c2C(C)C)cn2nnnc12 [Example 631, 1-(4-(3-isopropyl-2-(8-methyltetrazolo[1,5-a]pyridin-6-yl)-1H-indol-5-yl)piperidin-1-yl)-3-(2-oxa-6-azaspiro[3.3]heptan-6-yl)propan-1-one] |
| < 100 | 1000 to 50000 | 100 to 1000 | CNC(=O)CN1CCC(c2ccc3[nH]c(-c4cc(C)c5oc(=O)n(C)c5c4)c(C(C)C)c3c2)CC1 [Example 336, 2-(4-(2-(3,7-dimethyl-2-oxo-2,3-dihydrobenzo[d]oxazol-5-yl)-3-isopropyl-1H-indol-5-yl)piperidin-1-yl)-N-methylacetamide] |
| < 100 | 1000 to 50000 | < 100 | Cc1cc(-c2[nH]c3ccc(C4CCN(C5CCS(=O)(=O)CC5)CC4)cc3c2C(C)C)cn2nnnc12 [Example 788, 4-(4-(3-isopropyl-2-(8-methyltetrazolo[1,5-a]pyridin-6-yl)-1H-indol-5-yl)piperidin-1-yl)tetrahydro-2H-thiopyran 1,1-dioxide] |
| 100 to 1000 | 100 to 1000 | 100 to 1000 | CCc1c[nH]c2nccc(-c3[nH]c4ccc(C5CCNCC5)cc4c3C)c12 [Example 219, 4-(3-methyl-5-(piperidin-4-yl)-1H-indol-2-yl)-3-ethyl-1H-pyrrolo[2,3-b]pyridine] |
| 1000 to 50000 | 1000 to 50000 | > 3130 | CC(C)c1c(-c2cnc3ccnn3c2)[nH]c2ccc(C3CCN(CC(=O)N(C)C)CC3)cc12 [Example 359, 2-(4-(3-isopropyl-2-(pyrazolo[1,5-a]pyrimidin-6-yl)-1H-indol-5-yl)piperidin-1-yl)-N,N-dimethylacetamide] |
| < 100 | 1000 to 50000 | < 100 | Cc1cc(-c2[nH]c3ccc(C4CCN(C(=O)CN5CCCCC5)CC4)cc3c2C(C)C)cn2nnnc12 [Example 472, 1-(4-(3-isopropyl-2-(8-methyltetrazolo[1,5-a]pyridin-6-yl)-1H-indol-5-yl)piperidin-1-yl)-2-(piperidin-1-yl)ethan-1-one] |
| < 100 | 1000 to 50000 | < 100 | Cc1cc(-c2[nH]c3ccc(C4CCN(C(=O)CN(C)C)CC4)cc3c2C(C)C)cn2nnnc12 [Example 477, 2-(dimethylamino)-1-(4-(3-isopropyl-2-(8-methyltetrazolo[1,5-a]pyridin-6-yl)-1H-indol-5-yl)piperidin-1-yl)ethan-1-one] |
| < 100 | 100 to 1000 | < 100 | Cc1nc[nH]c1CN1CCC(c2ccc3[nH]c(-c4ccnc5[nH]ncc45)c(C(C)C)c3c2)CC1 [Example 864, 4-(3-isopropyl-5-(1-((4-methyl-1H-imidazol-5-yl)methyl)piperidin-4-yl)-1H-indol-2-yl)-1H-pyrazolo[3,4-b]pyridine] |
| < 100 | 1000 to 50000 | < 100 | Cc1c(-c2[nH]c3ccc(C4CCN(C(=O)CN(C)C)CC4)cc3c2C(C)C)nn2ncnc2c1C [Example 453, 1-(4-(2-(7,8-dimethyl-[1,2,4]triazolo [1,5-b]pyridazin-6-yl)-3-isopropyl-1H-indol-5-yl)piperidin-1-yl)-2-(dimethylamino)ethan-1-one] |
| < 100 | < 100 | < 100 | Cc1c(-c2ccnc3[nH]ncc23)[nH]c2ccc(C3CCN(C4CCN(C(C)C)CC4)CC3)cc12 [Example 833, 4-(5-(1′-isopropyl-[1,4′-bipiperidin]-4-yl)-3-methyl-1H-indol-2-yl)-1H-pyrazolo[3,4-b]pyridine] |
| 100 to 1000 | 1000 to 50000 | 100 to 1000 | CC(C)c1c(-c2ccc(Cl)c3[nH]ncc23)[nH]c2ccc(C3CCNCC3)cc12 [Example 106, 7-chloro-4-(3-isopropyl-5-(piperidin-4-yl)-1H-indol-2-yl)-1H-indazole] |

| Compound | IC50 (human TLR7) [nM] | IC50 (human TLR9) [nM] | IC50 (human TLR8) [nM] |
| --- | --- | --- | --- |
| CCN(CC)C(=O)C1CCCN(CC(=O)N2CCC(c3ccc4[nH]c(-c5ccnc6[nH]ccc56)c(C(C)C)c4c3)CC2)C1 (stereo not drawn) [Example 568, N,N-diethyl-1-(2-(4-(3-isopropyl-2-(1H-pyrrolo[2,3-b]pyridin-4-yl)-1H-indol-5-yl)piperidin-1-yl)-2-oxoethyl) piperidine-3-carboxamide] | < 100 | 1000 to 50000 | < 100 |
